Values of other authors as cited in patent US12387828B2, “System and method for ranking options for medical treatments” (PRXCISION LLC, priority 2015, dated 2025).

[1] = model value, multiplied by (WT/70)

What does the source list for `C[C@@H](O)[C@H]1C(=O)N2C(C(=O)O)=C(S[C@@H]3CN[C@H](C(=O)N(C)C)C3)[C@H](C)[C@H]12` [meropenem]?
CLt (total clearance) (equation in CLcr (mL/min) and WT (kg)): (10.2+2.08×CLcr)×(WT/70)×0.06; CLd (distributional clearance) [1]: 18.6 L/h; Vc (volume of the central compartment) [1]: 10.8 L; Vp (peripheral compartment volume) [1]: 12.6 L
